Legend:
heart rate [1] = experiment: Continuous heart rate monitoring in 6 individuals, sustained effect; format: in vivo, human; conditions: baseline 0.0
Procedure: In 6 individuals, heart rate experiments were performed to show the sustained effect of the combination of the five elements outlined in this invention. […] They sat quietly for […] to establish a baseline. They then on subsequent days ingested combination of the 5 elements described in this invention. The results are depicted in table 2 and FIG. 5. Where C is caffeine 150 mg, T is tyrosine 50 mg, CH is choline 200 mg, and GB is ginkgo biloba 120 mg.

heart rate [2] = experiment: Continuous heart rate recording, one individual, components on successive days; format: in vivo, human; conditions: baseline as reference, time point not given (5, 10, 15, 30 minutes recorded), caffeine 150 mg, tyrosine 50 mg, histadine 100 mg, Ginkgo Biloba 120 mg, choline 120 mg
Procedure: To test the components of example 14, a series of experiments were performed using a continuous heart rate recorder. In an individual on successive days, heart rate was recoded as RR intervals in msec. The individual sat quietly for 30 minutes as baseline. Then on day 1 the combination of caffeine, 150 mg, with tyrosine, 50 mg, histadine, 100 mg, Ginkgo Biloba, 120 mg, and choline 120 mg was given. […] A percent change was calculated with the baseline as reference. On Day 2 caffeine alone was ingested using the same protocol. […] On day 5, ginkgo biloba was ingested.

[3] = test system: vasodilation of the skin (skin temperature); experiment: Skin temperature probe test of skin vasodilation; format: in vivo, human; conditions: single ingredient given alone
Source text: A person ingested the preparation designed to increase nitric oxide and acetylcholine in order to induce vasodilation (example 3). The preparation included choline, arginine, hawthorn berry, cocoa, dextrose, and cinnamon. A temperature probe designed to assess skin temperature measured vasodilation of the skin. The baseline skin temperature was 99 degrees Fahrenheit. Within fifteen minutes after ingestion of the capsules, the skin temperature increased to 101.3 degrees Fahrenheit and remained elevated for three hours. The next day arginine alone was given with no effect on skin temperature. The following day, choline alone was given with no effect on skin temperature. The preparation was given for two weeks when skin temperature was again measured. The skin temperature increased by two degrees and remained elevated for 60 minutes (FIG. 3).

[4] = test system: appetite; heart rate and heart rate variability; experiment: Shell's earlier studies of attenuation of precursor formulations; format: in vivo; conditions: Shell's studies dating to 1987

Row | SMILES | percent change in heart rate (heart rate [2]) | effect on skin temperature [3] | other results
1 | Cn1c(=O)c2c(ncn2C)n(C)c1=O [Caffeine] | 3% |  | heart rate, 5 min (heart rate [1]; 5 min after ingestion): 3.0; heart rate, 15 min (heart rate [1]; 15 min after ingestion): 1.3; heart rate, 30 min (heart rate [1]; 30 min after ingestion): 0.0
2 | C[N+](C)(C)CCO [Choline] | −4% | no effect | 
3 | N[C@@H](Cc1c[nH]cn1)C(=O)O [Histadine] | 0.2% |  | 
4 | N[C@@H](Cc1ccc(O)cc1)C(=O)O [Tyrosine] | 1% |  | time until appetite suppression is lost [4]: approximately 7 days
5 | N=C(N)NCCC[C@H](N)C(=O)O [arginine] |  | no effect | 
